Data published in patent publication US8487090B2, “Water solution of 20(R)-ginsenoside Rg3 pharmaceutical composition and process thereof” (Dalian Fusheng Natural Medicine Development Co., Ltd., priority 2006, dated 2013).
Where two headings read alike, the source gives them in different places. Marks after values point to notes of the source that are not given here.

Tests used:
[1] = cited from earlier work
[2] = test system: Human Liver Cancer QGY Model; test: Liver in situ inoculation model, survival; format: in vivo, nude mice; conditions: 30 mg/kg/d ip × 7 qd
Protocol: (§1) Take intravenous administration, twice per day. For mice models inoculated with human tumor models and cells, continue injection for seven days; for mice models inoculated with mouse tumor cells, continue injection for five days.
(§2) Positive controls: CTX, 30 mg/kg; MMC, 2 mg/kg; 5Fu, 30 mg/kg; intraperitoneal or intravenous injection, once daily, continues for 7 days.

[3] = test system: Mouse Melanoma B16 Model; test: Caudal vein inoculation model, lung metastatic colonies; format: in vivo, C57BL/6 mouse
Protocol: as §1, §2
(§3) Mouse B16 melanoma cells in logarithmic growth phase are taken out under sterile condition, and a cell suspension with a density of about 2.5×10^5 cells/ml is prepared. Inoculate 0.2 ml/mouse of cell suspension into caudal vein of C57BL/6 mouse. Administrate the test drug next day according to the experimental design protocol, euthanize the animal after ˜3 weeks and remove the lungs from mice and count the metastatic colony in the lungs of each mouse. Calculate the tumor inhibition percentage based on the group mean colony by the following formula: Tumor inhibition percentage (%)=[(mean colony of control group−mean colony of treatment group)/mean colony of control group]×100% 5.3 Antineoplastic Toxicity Attenuation Bioassay

[4] = format: in vivo, C57BL/6 mouse; conditions: for Body Weight of Animals (g) End: Table 5
Protocol: as §3

[5] = test system: Human Intestine Cancer LOVO Model; test: Efficacy bioassay on intestine cancer model, survival; format: in vivo, nude mice; conditions: 30 mg/kg/d ip × 7 qd
From the text: Human intestine cancer LOVO model, human stomach cancer MGC model, and human liver cancer QGY model, all tumor strains are in vivo subcultured for more than 2nd generation. Mouse melanoma B16 cell are subcultured and maintained by Pharmacology Department of Shanghai Institute of Pharmaceutical Industry.
as §1, §2

[6] = test system: Human Gastric Cancer MGC Model; test: Stomach in situ inoculation model, survival; format: in vivo, nude mice; conditions: 30 mg/kg/d ip × 7 qd
Protocol: as §1, §2
Take strongly growing in-vivo 2nd-generation MGC stomach cancer (cells) under sterile condition, and prepare it into a cell suspension with a density of 2×10^7 cells/ml by a homogenate method. Inject 0.05 ml of the cell suspension into the muscular layer of greater curvature of stomach of the nude mice via a surgery operation. Administrate the above mice with test drug next day according to the experimental design protocol, and calculate the life extension percentage of the tumor bearing host: Life extension percentage (%)=(mean survival days of treatment group/mean survival days of control)×100% 5.1.2 Liver In Situ Inoculation Model

[7] = test system: mouse liver cancer model (Heps); test: Chemotherapy efficacy potentiation bioassay, tumor weight; format: in vivo
Protocol: Take strongly growing tumor cells under sterile condition, and prepare it into a cell suspension with a density of about 1˜2×10^7 cells/ml by a homogenate method. Inoculate 0.2 ml/mouse of the cell suspension subcutaneously into the armpit of the axillary host. Administrate the test drug next day according to the experimental design protocol. Euthanize each group animal after ˜3 weeks and remove the tumor from mice and weigh it. Calculate the tumor inhibition percentage by the following formula: Tumor inhibition percentage (%)=[(mean tumor weight of control group−mean tumor weight of treatment group)/mean tumor weight of control group]×100% 5.2.2 Caudal Vein Inoculation Model

[8] = Chemotherapy toxicity attenuation bioassay, blood counts; format: in vivo, mouse; conditions: Heps bearing mice

For `CC(C)=CCC[C@](C)(O)[C@H]1CC[C@]2(C)[C@@H]1[C@H](O)C[C@@H]1[C@@]3(C)CC[C@H](O[C@@H]4O[C@H](CO)[C@@H](O)[C@H](O)[C@H]4O[C@@H]4O[C@H](CO)[C@@H](O)[C@H](O)[C@H]4O)C(C)(C)[C@@H]3CC[C@]12C` [20(R)-ginsenoside Rg3], the solubility in water [1] is given as “insoluble in water”.

For `CC(C)=CCC[C@](C)(O)[C@H]1CC[C@]2(C)[C@@H]1[C@H](O)C[C@@H]1[C@@]3(C)CC[C@H](O[C@@H]4O[C@H](CO)[C@@H](O)[C@H](O)[C@H]4O[C@@H]4O[C@H](CO)[C@@H](O)[C@H](O)[C@H]4O)C(C)(C)[C@@H]3CC[C@]12C` [20(S)-ginsenoside Rg3], the solubility in water [1] is given as “easily dissolvable in water”.

In the case of `O=P1(N(CCCl)CCCl)NCCCO1` (stereo not shown) [CTX, Cyclophosphamide], the “Life Extension Percentage T/C × %” value [2] is reported as 157.53%, the “Mean Survival Time (d) mean ± SD” value [2] is reported as 34.50 ± 4.0 days and the “Antimetastatic Percentage %” value ([3]; Table 2, 100 mg/kg/d ip × 2 qd) is reported as 92.41%. For the same molecule, the “Lung Colony (number) mean ± SD” value ([3]; Table 2, 100 mg/kg/d ip × 2 qd) was 3.5 ± 3.7 number, the “Antimetastatic Percentage %” value ([3]; Table 5, 15 mg/kg/d ip × 7 qd) was 48.11% and the “Lung Colony (number) mean ± SD” value ([3]; Table 5, 15 mg/kg/d ip × 7 qd) was 26.1 ± 5.2 number. The “Antimetastatic Percentage %” value ([3]; Table 5, 30 mg/kg/d ip × 7 qd) was 93.44%, the “Lung Colony (number) mean ± SD” value ([3]; Table 5, 30 mg/kg/d ip × 7 qd) was 3.30 ± 2.6 number and the “Body Weight of Animals (g) end” value ([4]; Table 2, 100 mg/kg/d ip × 2 qd) was 19.8/22.6 g. The “Body Weight of Animals (g) End” value ([4]; 15 mg/kg/d ip × 7 qd) was 20.2/24.7 g, the “Body Weight of Animals (g) End” value ([4]; 30 mg/kg/d ip × 7 qd) was 19.9/22.6 g and the “Life Extension Percentage T/C × %” value [5] was 214.71%. The “Mean Survival Time (d) mean ± SD” value [5] was 29.20 ± 4.8 days, the “Life Extension Percentage T/C × %” value [6] was 181.02% and the “Mean Survival Time (d) mean ± SD” value [6] was 41.20 ± 3.8 days. The “Mean Tumor weight (g, mean ± SD)” value ([7]; 10 × 3 mg/kg/d) was 0.89 ± 0.29 g, the “Tumor Inhibition Percentage (%)” value ([7]; 10 × 3 mg/kg/d) was 56.52% and the “Hb” value ([8]; 10 × 3 mg/kg/d) was 82 ± 8.4 g/L. For the same molecule, the “RBC 10^12/L” value ([8]; 10 × 3 mg/kg/d) was 2.8 ± 0.3** 10^12/L and the “WBC (10^9/L)” value ([8]; 10 × 3 mg/kg/d) was 3.2 ± 0.5** 10^9/L.

For `O=c1[nH]c(=O)n([C@H]2C[C@H](O)[C@@H](CO)O2)cc1F` [Example 5Fu, 5-Fluorodeoxyuridine], the “Mean Tumor weight (g, mean ± SD)” value ([7]; 25 × 3 mg/kg/d) was 1.08 ± 0.34 g, the “Tumor Inhibition Percentage (%)” value ([7]; 25 × 3 mg/kg/d) was 41.30% and the “Hb” value ([8]; 25 × 3 mg/kg/d) was 90 ± 13.0 g/L. For the same molecule, the “RBC 10^12/L” value ([8]; 25 × 3 mg/kg/d) was 3.1 ± 0.4 10^12/L and the “WBC (10^9/L)” value ([8]; 25 × 3 mg/kg/d) was 3.9 ± 0.3** 10^9/L.

In the case of `CN(Cc1cnc2nc(N)nc(N)c2n1)c1ccc(C(=O)N[C@@H](CCC(=O)O)C(=O)O)cc1` [MTX], the “Mean Tumor weight (g, mean ± SD)” value ([7]; 5 × 3 mg/kg/d) is reported as 0.27 ± 0.01 g, the “Tumor Inhibition Percentage (%)” value ([7]; 5 × 3 mg/kg/d) is reported as 85.32% and the “Hb” value ([8]; 5 × 3 mg/kg/d) is reported as 51 ± 1.0 g/L. For the same molecule, the “RBC 10^12/L” value ([8]; 5 × 3 mg/kg/d) was 1.8 ± 0.1** 10^12/L and the “WBC (10^9/L)” value ([8]; 5 × 3 mg/kg/d) was 1.6 ± 0.1** 10^9/L.

For `N.N.[Cl][Pt][Cl]` [PDD], the “Mean Tumor weight (g, mean ± SD)” value ([7]; 1 × 3 mg/kg/d) was 1.09 ± 0.30 g and the “Tumor Inhibition Percentage (%)” value ([7]; 1 × 3 mg/kg/d) was 40.76%.
